# Results: patent publication US6071966A, “1-amino-alkylcyclohexane NMDA receptor antagonists” (Merz + Co. GmbH & Co., priority 1998, dated 2000)
# Experiments:
# traction reflex in mice = test: Traction reflex test (myorelaxant action); type: in vivo; settings: i.p., Table 8
# Protocol: (§1) NMR female mice (18-28 g) housed 5 per cage were used for the maximal electroshock (MES) and motor impairment tests. […] All compounds were dissolved in 0.9% saline.
# (§2) The MES test was performed together with tests for myorelaxant action (traction reflex) and motor coordination (rotarod). For the traction reflex test mice were placed with their forepaws on a horizontal rod and were required to place all 4 paws on the wire within 10 seconds. To test ataxia (motor coordination) mice were placed on rotarod (5 rpm) and were required to remain on the rod for 1 minute. […] These tests were followed by MES (100 Hz, 0.5 second shock duration, 50 mA shock intensity, 0.9 ms impulse duration, Ugo Basile) applied through corneal electrodes. The presence of tonic convulsions was scored (tonic extension of hind paws with minimum angle to the body of 90°). The aim was to obtain ED50 s for all parameters scored (anticonvulsive activity and motor side effects) with use of the Litchfield Wilcoxon test for quantal dose responses. Division of the ED50 for side effects (ataxia or myorelaxation) by the ED50 for antagonism of electroshock convulsions was used as a therapeutic index (TI). […]
# [1] = system: rotarod performance in mice; test: Rotarod test (motor coordination, ataxia); type: in vivo; settings: i.p., Table 8
# Protocol: (§3) All compounds were dissolved in 0.9% saline.
# (§4) The MES test was performed together with tests for myorelaxant action (traction reflex) and motor coordination (rotarod). For the traction reflex test mice were placed with their forepaws on a horizontal rod and were required to place all 4 paws on the wire within 10 seconds. To test ataxia (motor coordination) mice were placed on rotarod (5 rpm) and were required to remain on the rod for 1 minute. […] These tests were followed by MES (100 Hz, 0.5 second shock duration, 50 mA shock intensity, 0.9 ms impulse duration, Ugo Basile) applied through corneal electrodes. The presence of tonic convulsions was scored (tonic extension of hind paws with minimum angle to the body of 90°). The aim was to obtain ED50 s for all parameters scored (anticonvulsive activity and motor side effects) with use of the Litchfield Wilcoxon test for quantal dose responses. Division of the ED50 for side effects (ataxia or myorelaxation) by the ED50 for antagonism of electroshock convulsions was used as a therapeutic index (TI).
# (§5) Pearson product moment correlation analysis (Sigma Stat, Jandel Scientific) was used to compare in vitro potencies and in vivo anticonvulsant activity.
# [2] = i.p.; Table 8
# cortical neurones = test: Excitotoxicity: glutamate toxicity in cultured cortical neurones (MTT test); type: cell-based, rat; settings: words
# Protocol: Cortical neurones were obtained from cerebral cortices of 17/18 day old fetal rats (Wistar), in general following the dissociation procedure described by. After short trypsinization and gentle trituration with fire-polished Pasteur pipettes, the cell suspension was washed by centrifugation. Cells were suspended in serum-free Neurobasal medium with B27 supplement (GIBCO) before plating onto poly-L-lysine (Sigma; 0.2mg/ml, 20 h, 4° C.) and laminin (Sigma; 2 μg/ml, 1h, 37° C.)-coated 96-well plates (Falcon, Primaria) at a density of 5×10^4 cells/well. Cortical neurones were maintained at 37° C. in humidified 10% CO2 /90% air. […]
# Exposure to EAA was performed in serum-free Neurobasal medium containing 100 μM glutamate and the drug to be tested. After 20 h of incubation, the cytotoxic effect was morphologically examined under a phase contrast microscope and biochemically quantified by measuring cell viability with the MTT test (Promega). […] These samples were then read using an Elisa plate reader (Thermomax, MWG Biotech) at a wavelength of 570 nm. […]
# IC50 s in patch clamp, excitotoxicity, and binding studies were calculated according to the four parameter alogistic equation using the Grafit computer program (Erithacus Software, England). Ki value for binding studies were then determined according to Cheng and Prusoff. […]
# [3] = Traction reflex test (myorelaxant action); type: in vivo; settings: mouse, traction reflex versus mes, ip; mice, i.p.; Table 8; read-out: TI Tract. (ED50 traction reflex impairment / ED50 MES)
# Protocol: as §1, §2
# [4] = Rotarod test (motor coordination, ataxia); type: in vivo; settings: mouse, rotarod versus mes, ip; mice, i.p.; Table 8; read-out: TI Rot. (ED50 rotarod failure / ED50 MES)
# Protocol: as §3, §4, §5
# NMDA receptor = test: [3H]-(+)-MK-801 receptor binding to rat cortical membranes; settings: read-out: [3H]MK-801 IC50, [3H]-(+)-MK-801 5 nM, Table 7
# Protocol: Male Sprague-Dawley rats (200-250 g) were decapitated and their brains were removed rapidly. The cortex was dissected and homogenized in 20 volumes of ice-cold 0.32 M sucrose using a glass-Teflon homogenizer. The homogenate was centrifuged at 1000×g for 10 minutes. The pellet was discarded and the supernatant centrifuged at 20,000×g for 20 minutes. The resulting pellet was re-suspended in 20 volumes of distilled water and centrifuged for 20 minutes at 8000×g. Then the supernatant and the buffy coat were centrifuged three times (48,000×g for 20 minutes) in the presence of 50 mM Tris-HCl, pH 8.0. All centrifugation steps were carried out at 4° C. After resuspension in 5 volumes of 50 mM Tris-HCl, pH 8.0 the membrane suspension was frozen rapidly at -80° C. On the day of assay the membranes were thawed and washed four times by resuspension in 50 mM Tris-HCl, pH 8.0 and centrifugation at 48,000×g for 20 minutes. The final pellet was suspended in assay buffer. The amount of protein in the final membrane preparation was determined according to the method of Lowry with some modifications. The final protein concentration used for our studies was between 250-500 μg/ml.
# Membranes were re-suspended and incubated in 50 mM Tris-HCl, pH 8.0. […] Incubations were terminated using a Millipore filter system. The samples were rinsed three times with 2.5 ml ice cold assay buffer over glass fiber filters obtained from Schleicher & Schuell under a constant vacuum. Filtration was performed as rapidly as possible. Following separation and rinse, the filters were placed into scintillation liquid (5 ml; Ultima Gold) and radioactivity retained on the filters was determined with a conventional liquid scintillation counter (Hewlett Packard, Liquid Scintillation Analyser).
# IC50 s in patch clamp, excitotoxicity, and binding studies were calculated according to the four parameter alogistic equation using the Grafit computer program (Erithacus Software, England). Ki value for binding studies were then determined according to Cheng and Prusoff. Binding values presented are means ±SEM of 3-5 determinations (each performed in duplicate).
# [5] = Solubility (analytical certificates); type: physicochemical
# [6] = system: MES-induced convulsions in mice; test: Anticonvulsive activity: maximal electroshock (MES) test; type: in vivo; settings: i.p., Table 8, 30 min
# Protocol: as §1, §4, §5
Structure (SMILES),TI Tract. (ED50 traction reflex impairment / ED50 MES) (traction reflex in mice),TI Rot. (ED50 rotarod failure / ED50 MES) [1],Min Lethality [2] [mg/kg],neuroprotection in vitro (cortical neurones),selectivity ratio [3],selectivity ratio [4],IC50 (NMDA receptor) [µM],Solubility [5],MES ED50 [6] [mg/kg i.p.]
"CC1(C)CC(C)(C)CC(C)(N2CCCC2)C1.Cl [MRZ 2/705, N-(1,3,3,5,5-Pentamethylcyclohexyl) pyrrolidine hydrochloride]",3.9,5.4,> 50,,,,,,
"CC1(C)CC(C)(C)CC(C)(N)C1 [Mrz 2/579, 1-amino-1,3,3,5,5-pentamethylcyclohexane]",,,108,most potent,2.9,5,,,
"CC1CC(C)CC(C)(N)C1 (stereo not shown) [Mrz 2/616, 1-amino-1,3,5-trimethylcyclohexane]",,,> 50,,1,1.4,150,"soluble in water, chloroform",
CC1(C)CCCC(C)(N)C1 (stereo not shown) [Mrz 2/621],1.8,1.5,> 60,,,,,,36.9
